# How the values were obtained:
# A549 cells [1] = test: Propidium iodide flow cytometry cell cycle analysis in A549 cells; assay type: cell-based, human
# A549 cells [2] = test: Western blot of cell cycle inhibitors, cyclins and phospho-Rb in A549 cells; assay type: cell-based, human
# Experimental: FIGS. 3A-3B are bar graphs and digital images showing the effect of LY303511 on the levels of cell cycle inhibitors and cyclins. A549 cells (˜1×10^6 cells per 100-mm dish) were grown for 48 h before addition of 0.1% DMSO, 100 μM LY303511, or rapamycin, 200 ng/ml, for 0, 12, or 24 hours. At the indicated times, cells were homogenized and stored at −80° C. For Western blot analyses, samples (70 μg) of lysate proteins separated by SDS-PAGE were transferred to nitrocellulose membranes and reacted with the following antibodies: A. Phospho-S6K T389 (pS6K), p27 Kip1, p21 Cip1, phospho-Rb S807/S811, or B. Cyclin A, Cyclin B, Cyclin D, and Cyclin E. All blots are from one experiment. Data below (relative density) are means of densitometric values from duplicate dishes treated with inhibitors for 24 hours relative to DMSO control=1.0 in three experiments. *p<0.05 vs. DMSO control by Student's t-test.
# In another experiment, A549 cells were grown to sub-confluence in serum-containing media, and incubated with a vehicle, 100 mcM LY303511, or rapamycin, 200 ng/ml for 0, 12, or 24 hours. Cells were lysed, and proteins separated by SDS-PAGE before transfer to nitrocellulose membranes. Membranes were incubated with antibodies against p27Kip1, p21 Cip1 orphospho-P70 S6 kinase T389.
# PASM cells = test: BrDU incorporation (in situ ELISA) in PASM cells; assay type: cell-based, human
# Experimental: PASM cells (4,000 per well) were grown in 96-well plates for 24 hours before incubation for 24 hours in medium with (FIG. 4C) or without 10% FBS (FIG. 4D). Cells were then incubated in fresh medium containing 10% FBS, 10 μM BrDU, and 0-100 μM LY303511 without or with rapamycin, 200 or 400 ng/ml, for 24 hours BrDU incorporation was measured by in situ ELISA as per the manufacturer's instructions (BrDU detection kit, Roche). For each experiment, BrDU content of cells incubated with inhibitors was expressed relative to that in cells incubated with 0.1% DMSO control (% control). Mean control (=100%) absorbance for each experiment using cells from different donors was 0.22±0.06 and 0.24±0.06 for FIG. 4C and FIG. 4D, respectively (=100%). Data are means of BrDU values ±SEM from 3 experiments with assays in sextuplet. *p<0.05 vs. DMSO control, or †p<0.05 vs. 10 μM LY303511, by Student's t-test.
# Measurement of cell proliferation:. Cell proliferation, or DNA synthesis, was estimated using an in situ 5-bromo-2-deoxy-uridine (BrDU) detection kit as per the manufacturer's instructions (Roche Diagnostics; Nutley, N.J.). […] Cells were fixed, and BrDU was detected using a peroxidase-conjugated anti-BrDU antibody. The measured absorbance data in cells treated with inhibitors were normalized to those treated with DMSO control (% control).
# [3] = system: primary mouse peritoneal macrophages; test: LPS-induced cytokine production in peritoneal macrophages; assay type: cell-based; settings: LPS 1 μg/ml; 1~100 μM; 24 hours
# Experimental: FIG. 7A-F are bar graphs showing that LY303511 inhibits lipopolysaccharide (LPS)—induced cytokine production or STAT1 activity in primary mouse peritoneal macrophages or A549 cells. Wild-type mice from Jackson (Jac) and Taconic (Tac) were used. Peritoneal macrophages were harvested three days after thioglycolate injection. Cells were incubated for three days in 2% FCS RPMI. The supernatant was collected after stimulation with LPS 1 μg/ml with or without LY 303511 (1˜100 μM) or DMSO for 24 hours. Cytokines (interleukin (IL)-12p70, tumor necrosis factor (TNF)-α, interferon (IFN)-γ, MCP-1, IL-10, IL-6) were measured in cell supematants. […] Thus, LY303511 clearly can reduce cytokine expression, and has an anti-inflammatory effect.
# Peritoneal macrophages were harvested three days after thioglycolate injection. Cells were incubated for three days in 2% FCS RPM. The supernatant was collected after stimulation with LPS 1 μg/ml with or without LY 303511 (1˜100 μM) or DMSO for 24 hours. Cytokines (interleukin (IL)-12p70, tumor necrosis factor (TNF)-α, interferon (IFN)-γ, monocyte chemoattractant protein (MCP)-1, IL-10, IL-6) were measured in cell supernatants. […] Thus, LY303511 clearly can reduce cytokine expression, and has an anti-inflammatory effect.
# [4] = 100 mcM LY303511 or rapamycin 200 ng/ml, 12 and 24 hours
smiles,measurement,setting,value
"O=c1cc(N2CCNCC2)oc2c(-c3ccccc3)cccc12 [LY303511, 2-(4-piperazinyl)-8-phenyl-4H-1-benzopyran-4-one]",proportion of cells in G2/M,"A549 cells [1]; 100 μM LY303511, 24 hours",remained unchanged
same,fraction of cells in S phase,"A549 cells [1]; 24 hours, 10 or 100 μM LY303511 without or with rapamycin 200 ng/ml",significantly reduced the fraction of cells in S phase
same,apoptosis or necrosis,A549 cells [1]; flow cytometric analysis of propidium iodide-stained cells,did not induce apoptosis or necrosis
same,phosphorylation of Rb (S807/S811),A549 cells [2]; 100 mcM LY303511,reduced the phosphorylation of Rb
same,levels of cyclin A and B,A549 cells [2]; 100 mcM LY303511 or rapamycin 200 ng/ml,decreased levels of cyclin A and B
same,p21 Cip1 level,A549 cells [2]; [4],significant increase in p21 Cip1
same,p27Kip1 level,A549 cells [2]; [4],accumulation of p27Kip1
same,proliferation (BrDu incorporation),"PASM cells; PASM cells in serum-free medium for 24 h before addition of FBS (FIG. 4D), compared with serum pre-incubation",enhanced in the absence of serum
same,proliferation (BrDu incorporation),PASM cells; PASM cells incubated with serum before addition of inhibitors (FIG. 4C),inhibited in concentration-dependent fashion
same,"LPS-induced cytokines (IL-12p70, TNF-α, IFN-γ, MCP-1, IL-10, IL-6) in cell supernatants",[3],dose-dependent reduction of all six cytokines

# Reference: patent US8044057B2, “Methods for suppressing an immune response or treating a proliferative disorder” (The United States of America as represented by the …, priority 2003, dated 2011)
